Data on 7 molecules can be found in US9511086B2, “Method for improving immune system function by administering agents that inhibit DNA-dependent protein kinase-directed apoptosis” (The Board of Trustees of the Leland Stanford Junior …, priority 2010, dated 2016).

In series [1] the test system is B cells in blood and tissue. Particulars: cynomolgus monkeys; cited from earlier work.
In the next series the target is TNFα (Homo sapiens, UniProt P01375). Particulars: cited from earlier work.
In another series the test system is rheumatoid arthritis. The conditions noted are these: cited from earlier work.
A further series addresses T1, IL-1R type I (Homo sapiens, UniProt P14778).
T1 sequence (P14778 18-569): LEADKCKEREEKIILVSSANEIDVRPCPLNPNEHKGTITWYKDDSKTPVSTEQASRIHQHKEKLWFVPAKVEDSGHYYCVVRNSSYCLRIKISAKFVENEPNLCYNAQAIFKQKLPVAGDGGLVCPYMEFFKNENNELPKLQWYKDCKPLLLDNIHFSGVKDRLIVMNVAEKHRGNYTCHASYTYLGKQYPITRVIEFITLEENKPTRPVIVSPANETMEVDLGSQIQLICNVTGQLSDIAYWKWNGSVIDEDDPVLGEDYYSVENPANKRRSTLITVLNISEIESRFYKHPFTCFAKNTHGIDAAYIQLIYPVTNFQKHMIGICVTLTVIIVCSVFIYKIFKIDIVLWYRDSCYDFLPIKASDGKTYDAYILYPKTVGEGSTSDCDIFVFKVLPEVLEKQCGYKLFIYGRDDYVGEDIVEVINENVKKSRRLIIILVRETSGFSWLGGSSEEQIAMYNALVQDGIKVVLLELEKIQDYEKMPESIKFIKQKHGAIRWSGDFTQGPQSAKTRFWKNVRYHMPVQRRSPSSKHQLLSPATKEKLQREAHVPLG
The conditions noted are these: cited from earlier work.

Series [2] has as its system CD4+CD45RO− T cells from RA patients and controls. Put plainly: T-cell apoptosis (PI) with homeostatic cytokines. It counts as cell-based, human. The conditions noted are these: 72 h culture; IL-2 20 U/ml, IL-7 20 ng/ml, IL-15 10 ng/ml; similar in control and RA T cells.
Procedure: FIG. 1. […] CD4+CD45RO− T cells were isolated from the peripheral blood of RA patients and controls. Cells were maintained in culture without mitogenic stimulation for 72 h. (A) T cells undergoing apoptosis were identified by Annexin V and 7-AAD staining in patient-derived and control samples. Data are given as mean±SEM from 6 patients and 6 controls. (B) Representative data from one patient and one control collected after 72 h are shown. (C) Cells were maintained in culture with IL-2 (20 U/ml), IL-7 (20 ng/ml), IL-15 (10 ng/ml), or a mixture of the three (Mix) for 72 h. T cells undergoing apoptosis were identified by PI staining. Data are given as mean±SEM from 7 patients and 5 controls. (D) DNA breaks were quantified by comet assay after 72 h. Data are given as mean±SEM of 7 patients and 6 controls with a minimum of 90 individual cells analyzed in each sample.
To quantify T-cell apoptosis, CD4^+CD45RO^− cells were washed and suspended in 500 μl FACS buffer supplemented with EasyComp Blank Particles (Spherotech, Lake Forest, Ill.). Uptake of PI (Sigma-Aldrich) was determined by flow cytometry. Apoptotic cells were detected with PE-Annexin V (BD Biosciences, San Jose, Calif.) and 7-AAD (BD Biosciences).
Series [3] relates to CD4+CD45RO− T cells from RA patients. The series can be described thus: T-cell apoptosis by flow cytometry staining for PI, RA T cells. Type of series: cell-based, human. Here is the method:
FIG. 5. Inhibition of DNA-PKcs activity protects RA T cells from apoptosis. CD4+CD45RO− T cells were isolated from 6 control donors and 7 RA patients. Cells were maintained in culture without stimulation for 48 h and then were treated with the DNA-PKcs inhibitor IC86621 (50 nM, 100 nM) or vehicle for 24 h. Cells were harvested and (A) T-cell apoptosis was measured by flow cytometry staining for PI. Representative cytometric data from one patient and one control are shown. (B) Frequencies of PI-positive T-cells in the absence and presence of the DNA-PKcs inhibitor from 6 controls and 7 RA patients are presented as mean±SEM.
FIG. 6. Silencing of the DNA-PKcs gene reduces apoptosis in RA T cells. CD4+CD45RO− T cells were purified from 3 control donors and 3 RA patients and transfected with control or DNA-PKcs specific siRNA oligonucleotides by nucleofection. (A, B) Twenty-four hours after transfection, DNA-PKcs transcript levels were quantified by qPCR, and DNA-PKcs protein levels were detected by Western blotting. (C) T-cell apoptosis was analyzed by staining for PI. Representative data from one patient and one control are shown. (D) Cell apoptosis from 3 control and 3 RA samples are presented as mean±SEM.
FIG. 7. […] (A) CD4+CD45RO− T cells were isolated and cultured in the presence of the indicated enzyme inhibitors for 24 h. T-cell apoptosis was quantified through flow cytometry staining for PI. (B) Cells were maintained in culture without stimulation for 48 h and then were treated with the JNK inhibitor. PI-positive T cells were measured after 24 h of treatment with the JNK inhibitor II (5 μM or 10 μM) or vehicle. Frequencies of apoptotic T cells from 6 controls and 7 RA patients are presented as mean±SEM. (C) Representative flow cytometry results from one control and one patient. (D) Flow cytometry analysis of phosphorylated JNK levels in control and RA T cells after culturing without mitogenic stimulation for 72 h. Representative data from one patient and one control are presented. (E) Expression of pJNK protein in n=6 RA and n=6 control samples at 72 h is given as MFI of FITC-pJNK. (F) Flow cytometry analysis of phosphorylated JNK levels in freshly isolated control and RA naïve CD4 T cells. Expression of pJNK protein in n=7 RA and n=7 control samples at day 0 is given as MFI of FITC-pJNK. (G) Quantification of JNK and pJNK protein expression at 72 h by Western blotting. (H) Relative expression levels of pJNK were quantified by measuring band intensities adjusted by total JNK in 6 RA patients and 6 control donors. Data are presented as mean±SEM. (I) CD4+CD45RO− T cells were purified from RA donors and transfected with control or DNA-PKcs-specific siRNA oligonucleotides by nucleofection. Twenty-four hours after transfection, DNA-PKcs and pJNK protein levels were detected by Western blotting. A representative blot from three independent experiments is shown.
Peripheral blood mononuclear cells (PBMC) were separated from whole blood with Lymphocyte Separation Medium (Mediatech Inc., Herndon, Va.). CD45RO^− cells were negatively selected with microbeads (Miltenyi Biotec Inc., Auburn, Calif.), and the naïve CD4^+CD45RO^− population was subsequently selected with CD4 microbeads (autoMACS, Miltenyi Biotec Inc.).
CD4^+CD45RO^− T cells were maintained in a resting state in DMEM without mitogenic stimulation for three days. In selected experiments, T-cell homeostatic cytokines were supplemented. To test for the role of signaling networks in mediating apoptosis, the following inhibitors were added to the cultures at day 0: DNA-PKcs inhibitor IC86621 (Sigma-Aldrich, St. Louis, Mo.), JNK inhibitor II (Calbiochem, La Jolla, Calif.), p38 inhibitor (Alexis Biochemicals, Plymouth Meeting, Pa., SB203580), CaM inhibitor (Calbiochem), NE-KB inhibitor (Calbiochem), and AKT inhibitor (Calbiochem). […]
For orientation: Flow cytometry measures light scatter and fluorescence of single cells or particles in a stream.

The subject of a further series is Bim. The series can be described thus: Bim protein level by flow cytometry in RA T cells. It counts as cell-based, human. Particulars: treated vs untreated. How it is done: (§1) FIG. 8. The DNA-PKcs-JNK pathway upregulates the apoptogenic molecules Bim and Bmf in RA CD4+ T cells. CD4+CD45RO− T cells were isolated from the peripheral blood of 6 controls and 6 RA patients. Cells were maintained in culture without mitogenic stimulation for 72 h. (A) Puma, Noxa, Bim and Bmf transcript levels in freshly isolated cells were quantified by qPCR. Data are presented as mean±SEM. (B) Flow cytometry analysis of Bim levels in control and RA naïve T cells after 72 h of culture. Expression of Bim protein in n=5 RA and n=5 controls samples is given as MFI of Alexa Fluor 488 Bim. (C) Flow cytometry analysis of Bmf levels in control and RA naïve T cells. Expression of Bmf protein in n=6 RA and n=4 controls samples is given as MFI of PE Bmf. (D) Bcl-2 protein levels were analyzed by flow cytometry. Expression of Bcl-2 protein in n=6 RA and n=6 control samples is given as MFI of FITC Bcl-2. (E) Bim protein level in the absence and presence of the DNA-PKcs inhibitor were analyzed by flow cytometry in samples from 4 RA patients. […]
(§2) For intracellular staining, cells were fixed directly with 1.5% formaldehyde for 10 min at room temperature and resuspended in 90% methanol. […] Proteins or 8-oxoguanine expression were detected by an LSRII flow cytometer (BD Biosciences). Data were analyzed by FlowJo software (Tree Star Inc., Ashland, Oreg.). […]

For a further series, the system named is Bmf. The series can be described thus: Bmf protein level by flow cytometry in RA T cells. Type of series: cell-based, human. The conditions noted are these: treated vs untreated. Here is the method:
as §1, §2

TNFα, sequence (P01375 77-233 limits assumed): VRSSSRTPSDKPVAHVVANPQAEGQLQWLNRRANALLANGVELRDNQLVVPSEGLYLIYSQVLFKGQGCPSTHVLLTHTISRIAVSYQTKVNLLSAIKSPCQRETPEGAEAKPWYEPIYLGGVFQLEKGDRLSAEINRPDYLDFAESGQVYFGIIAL

“LymphoStat-B: fully human IgG1λ monoclonal antibody that neutralizes human BlyS”: in series [1], the “B cells in blood and tissue” value is “selectively reduces B cells in blood and tissue”; the toxicity entry is “no overt toxicity”. Etanercept: at TNFα, the “affinity for TNFα of the dimeric receptor relative to the monomeric receptor” value was 50-1000 fold.

For `CN(Cc1cnc2nc(N)nc(N)c2n1)c1ccc(C(=O)N[C@@H](CCC(=O)O)C(=O)O)cc1` [MTX, Methotrexate], in the series on rheumatoid arthritis, the “patients having some response” value is on record as 70%.

Regarding “Anakinra: human recombinant IL-1 receptor antagonist”, the “affinity of binding to IL-1R type I” value with IL-1R type I is listed as “same affinity as IL-1”. On to “IL-15: growth-promoting, T-cell homeostatic cytokine”, for which the “apoptosis rates / T-cell attrition” value in series [2] is “prevented only one-third of the T-cell attrition”.

Turning to `O=C1c2ccccc2-c2n[nH]c3cccc1c23` [JNK inhibitor II, anthra(1,9-cd)pyrazol-6(2H)-one], the “T cell death in screen with panel of signal pathway inhibitors” value in series [3] (RA T cells cultured with inhibitor for 24 h, PI staining) was “able to protect RA T cells from dying”. In addition, in series [3] (RA T cells, 48 h culture then 5 μM or 10 μM for 24 h), the “death rate in dose-response experiments” value is reported as “normalize the death rate”. Besides, the “effectiveness of 10 μM compared with 5 μM” value in series [3] (RA T cells, PI-positive cells after 24 h of treatment) is reported as “more effective”. For the same molecule, the “intracellular Bim levels” value in the series on Bim is recorded as “reduced”. For the same molecule, in the series on Bmf, the “intracellular Bmf levels” value was “reduced”.

B1: IL-7: growth-promoting, T-cell homeostatic cytokine (protein, UniProt P13232 26-177, looked up)
Interleukin-7: DCDIEGKDGKQYESVLMVSIDQLLDSMKEIGSNCLNNEFNFFKRHICDANKEGMFLFRAARKLRQFLKMNSTGDFDLHLLKVSEGTTILLNCTGQVKGRKPAALGEAQPTKSLEENKSLKEQKKLNDLCFLKRLLQEIKTCWNKILMGTKEH
Regarding B1, the “apoptosis rates / T-cell attrition” value in series [2] is given as “prevented only one-third of the T-cell attrition”.
